Reference: patent US20020004611A1 (Cargill, Incorporated, priority 1997, published 2002)

What was measured:
Assay type in all cases: physicochemical
[1] = Back extraction of lactic acid from Alamine 336 into second polar liquid phase (Example 4)
Method: Two solutions of lactic acid and […] 336 were made by contacting the […] […] The samples were held at the specified temperature in an oil bath for about 45 to 60 minutes with regular mixing. […] A similar procedure was used for contacting […] […] Phases were allowed to settle at specified temperature and then quickly separated by piping out the bottom phase. […] 336 concentrations. In all cases, the […] 336 phase was the least dense phase or the top phase. […] 336 concentrations in the top and bottom phases. […] In some of the solvents, there was a significant amount of […] 336 co-extracted into the polar liquid phase. Dimethyl sulfoxide looks like a favorable solvent for this type of process because of the good selectivity for the lactic acid over the […] 336.

[2] = Single stage extraction of lactic acid from fermentation broth with different solvents (Example 20); conditions: broth pH 3.87
Source text: Fermentation broth with a final pH value of 3.87 and a total lactate material concentration of 79 g/liter as determined by high performance liquid chromatography was obtained. A number of different solvents were contacted with the broth to determine the lactic acid recovery in a single stage. […] For the 100% Alamine 336 solvent, two organic phases were isolated and titrated and both values are reported. The partition coefficient is not reported for this system.

[3] = Three successive contacts of fermentation broth with fresh extracting solvent (Example 21); conditions: 89 wt % Alamine 336, 9 wt % dodecanol, 2 wt % IsoPar K; for Lactic Acid Aqueous Phase wt % / Lactic Acid Organic Phase wt %: aqueous to organic phase ratio 3.0
Source text: Fermentation broth with a final pH of 3.87 and a total lactate material concentration of 79 g/liter as determined by high performance liquid chromatography was obtained.

[4] = Chiral purity of lactic acid after heating during triethylamine evaporation (Example 5)
Method: The back extraction was scaled up to allow the distillation experiment. […] The triethylamine evaporated initially at 23° C. and 10 mm Hg. […] About 69% of the triethylamine evaporated out. […].
The remaining mixture was heated to 110° C. where it was held for 80 minutes. At this point, 96% of the triethylamine was evaporated.

[5] = solvent 30 wt % TOPO, 70 wt % MIBK
[6] = solvent 82 wt % A336, 10 wt % OctOH, 8 wt % IPK
[7] = solvent 89 wt % A336, 9 wt % DodecOH, 2 wt % IPK

- Partition Coefficient (lactic acid, Alamine 336 top phase / bottom polar liquid phase) ([1]; solvent Lactide, 140 °C): 0.82
- Lactic acid Wt % ([1]; solvent Lactide, 140 °C, Bottom phase, calculated from overall mass balance): 2.98^2 Wt %
- Lactic acid Wt % ([1]; solvent Lactide, 140 °C, Top (Alamine 336) phase): 2.44 Wt %
- Partition Coefficient (lactic acid, Alamine 336 top phase / bottom polar liquid phase) ([1]; solvent NMP, 90 °C): 0.29
- Lactic acid Wt % ([1]; solvent NMP, 90 °C, Bottom (polar liquid) phase): 1.13 Wt %
- Lactic acid Wt % ([1]; solvent NMP, 90 °C, Top (Alamine 336) phase): 0.33 Wt %
- Partition Coefficient (lactic acid, Alamine 336 top phase / bottom polar liquid phase) ([1]; solvent NMP, 110 °C): 0.22
- Lactic acid Wt % ([1]; solvent NMP, 110 °C, Bottom (polar liquid) phase): 12.2 Wt %
- Lactic acid Wt % ([1]; solvent NMP, 110 °C, Top (Alamine 336) phase): 2.73 Wt %
- Lactic Acid Aqueous Phase wt % [2, 5]: 2.24 wt %
- Lactic Acid Organic Phase wt % [2, 5]: 2.36 wt %
- Partition Coefficient [2, 5]: 1.05
- Lactic Acid Aqueous Phase wt % [2, 6]: 1.52 wt %
- Lactic Acid Organic Phase wt % [2, 6]: 5.09 wt %
- Partition Coefficient [2, 6]: 3.35
- Lactic Acid Aqueous Phase wt % [2, 7]: 4.76 wt %
- Lactic Acid Organic Phase wt % [2, 7]: 1.84 wt %
- Partition Coefficient [2, 7]: 2.6
- Lactic Acid Aqueous Phase wt % ([2]; solvent 100% A336): 2.34 wt %
- Partition Coefficient ([3]; Stage 1): 2.5
- Lactic Acid Aqueous Phase wt % ([3]; Stage 1): 1.55 wt %
- Lactic Acid Organic Phase wt % ([3]; Stage 1): 3.9 wt %
- Partition Coefficient ([3]; Stage 2): 1.25
- Lactic Acid Aqueous Phase wt % ([3]; Stage 2): 1.09 wt %
- Lactic Acid Organic Phase wt % ([3]; Stage 2): 1.36 wt %
- Partition Coefficient ([3]; Stage 3): 0.84
- Lactic Acid Aqueous Phase wt % ([3]; Stage 3): 0.88 wt %
- Lactic Acid Organic Phase wt % ([3]; Stage 3): 0.74 wt %
- chiral purity after heating ([4]; 21.5 wt % lactic acid in triethylamine and N-methyl-2-pyrrolidinone, 55° C. 10 mm Hg two hours, then 110° C. 80 minutes): not significantly changed
- chiral purity of the lactic acid after heating ([4]; 43 wt % lactic acid in triethylamine, 10 mm Hg, heated to 120° C., held 90 minutes): not changed significantly
Structure (SMILES): CC(O)C(=O)O (stereo not drawn) [lactic acid, 2-hydroxypropionic acid]
